Patent US20100204265A1 (priority 2009, published 2010)
pEC50: −log10 of the molar value.

Tested on: ET (Huh-lucubineo-ET) cell line harboring I389luc-ubi-neo/NS3-3′/ET HCV replicon
Assay: Replicon assay (HCV replicon, luciferase readout)
Type: cell-based
Conditions: Hepatitis C virus
Outline: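 Compounds at 10-point 2-fold dilutions (overall 0.1 nM to […], 0.5% DMSO) were applied to ET cells carrying a luciferase-neo HCV replicon, seeded a day earlier. After 48-72 hours, luciferase-based % inhibition was fitted with a Hill equation for EC50, and parallel WST-1 readings gave TC50.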

| SMILES | pEC50 |
| --- | --- |
| COC(=O)C(CCSC)NC(=O)Cc1cn2cc(-c3ccoc3)cc(C(F)(F)F)c2n1 (centres unmarked) [Compound 291, 2-[2-(6-Furan-3-yl-8-trifluoromethyl-imidazo[1,2-a]pyridin-2-yl)-acetylamino]-4-methylsulfanyl-butyric acid methyl ester] | < 4.30 |
| COC(=O)C(CO)NC(=O)Cc1cn2cc(-c3ccoc3)cc(C(F)(F)F)c2n1 (centres unmarked) [Compound 292, 2-[2-(6-Furan-3-yl-8-trifluoromethyl-imidazo[1,2-a]pyridin-2-yl)-acetylamino]-3-hydroxy-propionic acid methyl ester] | < 4.30 |
| COC(=O)C(Cc1cnc[nH]1)NC(=O)Cc1cn2cc(-c3ccoc3)cc(C(F)(F)F)c2n1 (centres unmarked) [Compound 293, 2-[2-(6-Furan-3-yl-8-trifluoromethyl-imidazo[1,2-a]pyridin-2-yl)-acetylamino]-3-(3H-imidazol-4-yl)-propionic acid methyl ester] | < 4.30 |
| COC(=O)CCNC(=O)Cc1cn2cc(-c3ccoc3)cc(C(F)(F)F)c2n1 [Compound 295, 3-[2-(6-Furan-3-yl-8-trifluoromethyl-imidazo[1,2-a]pyridin-2-yl)-acetylamino]-propionic acid methyl ester] | < 4.30 |
| CC(NC(=O)Cc1cn2cc(-c3ccoc3)cc(C(F)(F)F)c2n1)C(N)=O (centres unmarked) [Compound 296, 2-[2-(6-Furan-3-yl-8-trifluoromethyl-imidazo[1,2-a]pyridin-2-yl)-acetylamino]-propionamide] | < 4.30 |
| CC(C)[C@H](NC(=O)Cc1cn2cc(-c3ccoc3)cc(C(F)(F)F)c2n1)C(N)=O [Compound 297, 2-[2-(6-Furan-3-yl-8-trifluoromethyl-imidazol[1,2-a]pyridin-2-yl)-acetylamino]-3-methyl-butyramide] | < 4.30 |
| CC(O)[C@H](NC(=O)Cc1cn2cc(-c3ccoc3)cc(C(F)(F)F)c2n1)C(N)=O (some centres unmarked) [Compound 299, 2-[2-(6-Furan-3-yl-8-trifluoromethyl-imidazo[1,2-a]pyridin-2-yl)-acetylamino]-3-hydroxy-butyramide] | < 4.30 |
| NC(=O)CNC(=O)Cc1cn2cc(-c3ccoc3)cc(C(F)(F)F)c2n1 [Compound 300, N-Carbamoylmethyl-2-(6-furan-3-yl-8-trifluoromethyl-imidazo[1,2-a]pyridin-2-yl)-acetamide] | < 4.30 |
| CNC(=O)CNC(=O)Cc1cn2cc(-c3ccoc3)cc(C(F)(F)F)c2n1 [Compound 301, 2-(6-Furan-3-yl-8-trifluoromethyl-imidazo[1,2-a]pyridin-2-yl)-N-methylcarbamoylmethyl-acetamide] | < 4.30 |
| CN(C)C(=O)CNC(=O)Cc1cn2cc(-c3ccoc3)cc(C(F)(F)F)c2n1 [Compound 302, N-Dimethylcarbamoylmethyl-2-(6-furan-3-yl-8-trifluoromethyl-imidazo[1,2-a]pyridin-2-yl)-acetamide] | < 4.30 |
| NC(=O)[C@H](Cc1c[nH]c2ccccc12)NC(=O)Cc1cn2cc(-c3ccoc3)cc(C(F)(F)F)c2n1 [Compound 303, 2-[2-(6-Furan-3-yl-8-trifluoromethyl-imidazo[1,2-a]pyridin-2-yl)-acetylamino]-3-(1H-indol-3-yl)-propionamide] | < 4.30 |
| COC(=O)C(C)NC(=O)Cc1cn2cc(-c3ccoc3)cc(C(F)(F)F)c2n1 (centres unmarked) [Compound 304, 2-[2-(6-Furan-3-yl-8-trifluoromethyl-imidazo[1,2-a]pyridin-2-yl)-acetylamino]-propionic acid methyl ester] | < 4.30 |
| COC(=O)C(NC(=O)Cc1cn2cc(-c3ccoc3)cc(C(F)(F)F)c2n1)C(C)O (centres unmarked) [Compound 305, 2-[2-(6-Furan-3-yl-8-trifluoromethyl-imidazo[1,2-a]pyridin-2-yl)-acetylamino]-3-hydroxy-butyric acid methyl ester] | < 4.30 |
| COC(=O)C(CC(C)C)NC(=O)Cc1cn2cc(-c3ccoc3)cc(C(F)(F)F)c2n1 (centres unmarked) [Compound 306, 2-[2-(6-Furan-3-yl-8-trifluoromethyl-imidazo[1,2-a]pyridin-2-yl)-acetylamino]-4-methyl-pentanoic acid methyl ester] | < 4.30 |
| COC(=O)C1CCCN1C(=O)Cc1cn2cc(-c3ccoc3)cc(C(F)(F)F)c2n1 (centres unmarked) [Compound 307, 1-[2-(6-Furan-3-yl-8-trifluoromethyl-imidazo[1,2-a]pyridin-2-yl)-acetyl]-pyrrolidine-2-carboxylic acid methyl ester] | < 4.30 |
| COC(=O)C(NC(=O)Cc1cn2cc(-c3ccoc3)cc(C(F)(F)F)c2n1)c1ccccc1 (centres unmarked) [Compound 309, [2-(6-Furan-3-yl-8-trifluoromethyl-imidazo[1,2-a]pyridin-2-yl)-acetylamino]-phenyl-acetic acid methyl ester] | < 4.30 |
| COC(=O)C(NC(=O)Cc1cn2cc(-c3ccoc3)cc(C(F)(F)F)c2n1)C(C)C (centres unmarked) [Compound 310, 2-[2-(6-Furan-3-yl-8-trifluoromethyl-imidazo[1,2-a]pyridin-2-yl)-acetylamino]-3-methyl-butyric acid methyl ester] | < 4.30 |
| COC(=O)C(Cc1c[nH]c2ccccc12)NC(=O)Cc1cn2cc(-c3ccoc3)cc(C(F)(F)F)c2n1 (centres unmarked) [Compound 311, 2-[2-(6-Furan-3-yl-8-trifluoromethyl-imidazol[1,2-a]pyridin-2-yl)-acetylamino]-3-(1H-indol-3-yl)-propionic acid methyl ester] | < 4.30 |
| COC(=O)C(Cc1ccccc1)NC(=O)Cc1cn2cc(-c3ccoc3)cc(C(F)(F)F)c2n1 (centres unmarked) [Compound 312, 2-[2-(6-Furan-3-yl-8-trifluoromethyl-imidazo[1,2-a]pyridin-2-yl)-acetylamino]-3-phenyl-propionic acid methyl ester] | < 4.30 |
| NC(=O)[C@H]1CCCN1C(=O)Cc1cn2cc(-c3ccoc3)cc(C(F)(F)F)c2n1 [Compound 313, 1-[2-(6-Furan-3-yl-8-trifluoromethyl-imidazo[1,2-a]pyridin-2-yl)-acetyl]-pyrrolidine-2-carboxylic acid amide] | < 4.30 |
| CN(C)C(=O)[C@H]1CCCN1C(=O)Cc1cn2cc(-c3ccoc3)cc(C(F)(F)F)c2n1 [Compound 314, 1-[2-(6-Furan-3-yl-8-trifluoromethyl-imidazo[1,2-a]pyridin-2-yl)-acetyl]-pyrrolidine-2-carboxylic acid dimethylamide] | < 4.30 |
| CS(=O)(=O)NC1CCN(C(=O)c2nc3c(C(F)(F)F)cc(-c4ccoc4)cn3c2Cl)CC1 [Compound 322, N-[1-(3-Chloro-6-furan-3-yl-8-trifluoromethyl-imidazo[1,2-a]pyridine-2-carbonyl)-piperidin-4-yl]-methanesulfonamide] | 6.57 |
| CC(=O)NC1CCN(C(=O)c2nc3c(C(F)(F)F)cc(-c4ccoc4)cn3c2Cl)CC1 [Compound 323, N-[1-(3-Chloro-6-furan-3-yl-8-trifluoromethyl-imidazo[1,2-a]pyridine-2-carbonyl)-piperidin-4-yl]-acetamide] | 4.97 |
| O=C1CCCC2(CCN(C(=O)c3nc4c(C(F)(F)F)cc(-c5ccoc5)cn4c3Cl)CC2)N1 [Compound 324, 9-(3-Chloro-6-furan-3-yl-8-trifluoromethyl-imidazo[1,2-a]pyridine-2-carbonyl)-1,9-diaza-spiro[5.5]undecan-2-one] | < 4.30 |
| CC(=O)N1CCCN(C(=O)c2nc3c(C(F)(F)F)cc(-c4ccoc4)cn3c2Cl)CC1 [Compound 325, 1-[4-(3-Chloro-6-furan-3-yl-8-trifluoromethyl-imidazo[1,2-a]pyridine-2-carbonyl)-[1,4]diazepan-1-yl]-ethanone] | < 4.30 |
| CS(=O)(=O)N1CCCN(C(=O)c2nc3c(C(F)(F)F)cc(-c4ccoc4)cn3c2Cl)CC1 [Compound 326, (3-Chloro-6-furan-3-yl-8-trifluoromethyl-imidazo[1,2-a]pyridin-2-yl)-(4-methanesulfonyl-[1,4]diazepan-1-yl)-methanone] | 4.94 |
| O=C1NC(=O)C2(CCN(C(=O)c3nc4c(C(F)(F)F)cc(-c5ccoc5)cn4c3Cl)CC2)N1 [Compound 330, 8-(3-Chloro-6-furan-3-yl-8-trifluoromethyl-imidazo[1,2-a]pyridine-2-carbonyl)-1,3,8-triaza-spiro[4.5]decane-2,4-dione] | < 4.30 |
| COC(=O)N1CCCN(C(=O)c2nc3c(C(F)(F)F)cc(-c4ccoc4)cn3c2Cl)CC1 [Compound 331, 4-(3-Chloro-6-furan-3-yl-8-trifluoromethyl-imidazo[1,2-a]pyridine-2-carbonyl)-[1,4]diazepane-1-carboxylic acid methyl ester] | 4.57 |

Tested on: not given
Assay: not given
Conditions: patients treated at currently recommended doses; cited from earlier work

| SMILES | significant hemolysis, share of patients |
| --- | --- |
| NC(=O)c1ncn([C@@H]2O[C@H](CO)[C@@H](O)[C@H]2O)n1 [Ribavirin, 1-P-D-ribofuranosyl-1H-1,2,-4-triazole-3-carboxamide] | 10-20% |
